Assay results from patent US9732104B2, “Ether compounds for treatment of complement mediated disorders” (Achillion Pharmaceuticals, Inc., priority 2014, dated 2017).
pIC50: −log10 of the molar value.

Target: Human factor D (Homo sapiens (Human), UniProt P00746)
Assay: Human Factor D Assay
Format: biochemical
Settings: Human factor D purified from human serum, 80 nM; substrate Z-L-Lys-SBzl with DTNB; assay of Example 8
Description: The assay of Example 8 was used to determine the IC50's of the compounds. Other standard factor D inhibition assays are also available.
Example 8. Human Factor D Assay
Human factor D (purified from human serum, Complement Technology, Inc.) at 80 nM final concentration is incubated with test compound at various concentrations for 5 minutes at room temperature in 50 mM Tris, 1M NaCl, pH 7.5. A synthetic substrate Z-L-Lys-SBzl and DTNB (Ellman's reagent) are added to final concentrations of 100 µM each. The increase in color is recorded at OD405 nm in a microplate in kinetic mode over 30 minutes with 30 second time points in a […]. IC50 values are calculated by non-linear regression from the percentage of inhibition of complement factor D activity as a function of test compound concentration.

Chain of Human factor D (P00746 26-253): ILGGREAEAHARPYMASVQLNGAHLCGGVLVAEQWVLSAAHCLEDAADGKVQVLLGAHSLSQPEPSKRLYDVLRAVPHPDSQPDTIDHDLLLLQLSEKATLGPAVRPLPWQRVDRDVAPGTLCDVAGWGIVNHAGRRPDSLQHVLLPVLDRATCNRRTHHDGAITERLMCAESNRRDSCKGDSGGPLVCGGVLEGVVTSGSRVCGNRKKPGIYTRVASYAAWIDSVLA

Structure (SMILES)	pIC50
CC(=O)c1cn(CC(=O)N2C[C@H](F)C[C@H]2C(=O)NCc2cccc(Cl)c2F)c2cc(OCC3CC3)ccc12 [Compound 1, (2S,4R)-1-(2-(3-acetyl-6-(cyclopropylmethoxy)-1H-indol-1-yl)acetyl)-N-(3-chloro-2-fluorobenzyl)-4-fluoropyrrolidine-2-carboxamide]	> 6.00
CC(=O)c1cn(CC(=O)N2C[C@H](F)C[C@H]2C(=O)NCc2cccc(Cl)c2F)c2cc(OS(=O)(=O)C(F)(F)F)ccc12 [Compound 2, 3-acetyl-1-(2-((2S,4R)-2-(3-chloro-2-fluorobenzylcarbamoyl)-4-fluoropyrrolidin-1-yl)-2-oxoethyl)-1H-indol-6-yl trifluoromethanesulfonate]	> 6.00
CC(=O)c1cn(CC(=O)N2[C@@H]3C[C@@H]3C[C@H]2C(=O)NCc2cccc(Cl)c2F)c2cc(OCC3CC3)ccc12 [Compound 3, (1R,3S,5R)-2-(2-(3-acetyl-6-(cyclopropylmethoxy)-1H-indol-1-yl)acetyl)-N-(3-chloro-2-fluorobenzyl)-2-azabicyclo[3.1.0]hexane-3-carboxamide]	> 6.00
CC(=O)c1cn(CC(=O)N2C[C@H](F)C[C@H]2C(=O)Nc2cccc(OC(F)(F)F)c2F)c2cc(OCC3CC3)ccc12 [Compound 4, (2S,4R)-1-(2-(3-acetyl-6-(cyclopropylmethoxy)-1H-indol-1-yl)acetyl)-4-fluoro-N-(2-fluoro-3-(trifluoromethoxy)phen-yl)pyrrolidine-2-carboxamide]	> 6.00
CC(=O)c1cn(CC(=O)N2C[C@H](F)C[C@H]2C(=O)NCc2cccc(Cl)c2F)c2cc(OCCC3CC3)ccc12 [Compound 5, (2S,4R)-1-(2-(3-acetyl-6-(2-cyclopropylethoxy)-1H-indol-1-yl)acetyl)-N-(3-chloro-2-fluorobenzyl)-4-fluoropyrrolidine-2-carboxamide]	> 6.00
CCOP(=O)(COc1ccc2c(C(C)=O)cn(CC(=O)N3C[C@H](F)C[C@H]3C(=O)NCc3cccc(Cl)c3F)c2c1)OCC [Compound 7, diethyl (3-acetyl-1-(2-((2S,4R)-2-(3-chloro-2-fluorobenzylcarbamoyl)-4-fluoropyrrolidin-1-yl)-2-oxoethyl)-1H-indol-6-yloxy)methylphosphonate]	> 6.00
CC(=O)c1cn(CC(=O)N2C[C@H](F)C[C@H]2C(=O)NCc2cccc(Cl)c2F)c2cc(OCP(=O)(O)O)ccc12 [Compound 8, (3-acetyl-1-(2-((2S,4R)-2-(3-chloro-2-fluorobenzylcarbamoyl)-4-fluoropyrrolidin-1-yl)-2-oxoethyl)-1H-indol-6-yloxy)methylphosphonic acid]	> 6.00
CC(=O)c1cn(CC(=O)N2C[C@H](F)C[C@H]2C(=O)NCc2cccc(Cl)c2F)c2ccc(OS(=O)(=O)C(F)(F)F)cc12 [Compound 9, 3-acetyl-1-(2-((2S,4R)-2-(3-chloro-2-fluorobenzylcarbamoyl)-4-fluoropyrrolidin-1-yl)-2-oxoethyl)-1H-indol-5-yl trifluoromethanesulfonate]	> 6.00
CCOP(=O)(COc1ccc2c(c1)c(C(C)=O)cn2CC(=O)N1C[C@H](F)C[C@H]1C(=O)NCc1cccc(Cl)c1F)OCC [Compound 10, diethyl (3-acetyl-1-(2-((2S,4R)-2-(3-chloro-2-fluorobenzylcarbamoyl)-4-fluoropyrrolidin-1-yl)-2-oxoethyl)-1H-indol-5-yloxy)methylphosphonate]	> 6.00
CC(=O)c1cn(CC(=O)N2C[C@H](F)C[C@H]2C(=O)NCc2cccc(Cl)c2F)c2ccc(OCP(=O)(O)O)cc12 [Compound 11, (3-acetyl-1-(2-((2S,4R)-2-(3-chloro-2-fluorobenzylcarbamoyl)-4-fluoropyrrolidin-1-yl)-2-oxoethyl)-1H-indol-5-yloxy)methylphosphonic acid]	> 6.00
CC(=O)c1cn(CC(=O)N2C[C@H](F)C[C@H]2C(=O)NCc2cccc(Cl)c2F)c2cc(OCP(=O)(OCOC(=O)OC(C)C)OCOC(=O)OC(C)C)ccc12 [Compound 12, (((3-acetyl-1-(2-((2S,4R)-2-(3-chloro-2-fluorobenzylcarbamoyl)-4-fluoropyrrolidin-1-yl)-2-oxoethyl)-1H-indol-6-yloxy)methyl)phospho-ryl)bis(oxy)bis(methylene) isopropyl dicarbonate]	> 6.00
CC(=O)c1cn(CC(=O)N2C[C@H](F)C[C@H]2C(=O)NCc2cccc(Cl)c2F)c2cc(OCP(=O)(O)OCOC(=O)OC(C)C)ccc12 [Compound 13, (((3-acetyl-1-(2-((2S,4R)-2-(3-chloro-2-fluorobenzylcarbamoyl)-4-fluoropyrrolidin-1-yl)-2-oxoethyl)-1H-indol-6-yloxy)methyl)(hydro-xy)phosphoryloxy)meth-yl isopropyl carbonate]	> 6.00
CCOP(=O)(CC)COc1ccc2c(C(C)=O)cn(CC(=O)N3C[C@H](F)C[C@H]3C(=O)NCc3cccc(Cl)c3F)c2c1 (stereo partly drawn) [Compound 14, ethyl (3-acetyl-1-(2-((2S,4R)-2-(3-chloro-2-fluorobenzylcarbamoyl)-4-fluoropyrrolidin-1-yl)-2-oxoethyl)-1H-indol-6-yloxy)methyl(eth-yl)phosphinate]	> 6.00
CC(=O)c1cn(CC(=O)N2C[C@H](F)C[C@H]2C(=O)NCc2cccc(Cl)c2F)c2cc(OCS(=O)(=O)NC(C)(C)C)ccc12 [Compound 15, (2S,4R)-1-(2-(3-acetyl-6-(N-tert-butylsulfamoylmethoxy)-1H-indol-1-yl)acetyl)-N-(3-chloro-2-fluorobenzyl)-4-fluoropyrrolidine-2-carboxamide]	> 6.00
CCP(=O)(O)COc1ccc2c(C(C)=O)cn(CC(=O)N3C[C@H](F)C[C@H]3C(=O)NCc3cccc(Cl)c3F)c2c1 [Compound 16, (3-acetyl-1-(2-((2S,4R)-2-(3-chloro-2-fluorobenzylcarbamoyl)-4-fluoropyrrolidin-1-yl)-2-oxoethyl)-1H-indol-6-yloxy)methyl(eth-yl)phosphinic acid]	> 6.00
CC(=O)c1cn(CC(=O)N2C[C@H](F)C[C@H]2C(=O)NCc2cccc(Cl)c2F)c2cc(OCS(N)(=O)=O)ccc12 [Compound 17, (2S,4R)-1-(2-(3-acetyl-6-(sulfamoylmethoxy)-1H-indol-1-yl)acetyl)-N-(3-chloro-2-fluorobenzyl)-4-fluoropyrrolidine-2-carboxamide]	> 6.00
CCOP(=O)(COc1ccc2c(C(C)=O)cn(CC(=O)N3C[C@H](F)C[C@H]3C(=O)N[C@H](C)c3cccc(Cl)c3F)c2c1)OCC [Compound 18, diethyl (3-acetyl-1-(2-((2S,4R)-2-((R)-1-(3-chloro-2-fluorophen-yl)ethylcarbamoyl)-4-fluoropyrrolidin-1-yl)-2-oxoethyl)-1H-indol-6-yloxy)methylphosphonate]	> 6.00
CC(=O)c1cn(CC(=O)N2C[C@H](F)C[C@H]2C(=O)N[C@H](C)c2cccc(Cl)c2F)c2cc(OCP(=O)(O)O)ccc12 [Compound 19, (3-acetyl-1-(2-((2S,4R)-2-((R)-1-(3-chloro-2-fluorophenyl)ethyl-carbamoyl)-4-fluoropyrrolidin-1-yl)-2-oxoethyl)-1H-indol-6-yloxy)methylphosphonic acid]	> 6.00
CCCCCCCCCCCCCCCCOCCCOP(=O)(O)COc1ccc2c(C(C)=O)cn(CC(=O)N3C[C@H](F)C[C@H]3C(=O)NCc3cccc(Cl)c3F)c2c1 [Compound 20, 3-(hexadecyloxy)propyl hydrogen (3-acetyl-1-(2-((2S,4R)-2-(3-chloro-2-fluorobenzylcarbamoyl)-4-fluoropyrrolidin-1-yl)-2-oxoethyl)-1H-indol-6-yloxy)methylphosphonate]	> 6.00
CC(=O)c1cn(CC(=O)N2C[C@H](F)C[C@H]2C(=O)NCc2cccc(Cl)c2F)c2cc(OCP(=O)(OCOC(=O)C(C)(C)C)OCOC(=O)C(C)(C)C)ccc12 [Compound 21, (((3-acetyl-1-(2-((2S,4R)-2-(3-chloro-2-fluorobenzylcarbamoyl)-4-fluoropyrrolidin-1-yl)-2-oxoethyl)-1H-indol-6-yloxy)methyl)phosph-oryl)bis(oxy)bis(meth-ylene) bis(2,2-dimethylpropanoate)]	> 6.00
CC(=O)c1cn(CC(=O)N2C[C@H](F)C[C@H]2CNS(=O)(=O)c2cccc(Cl)c2F)c2cc(OCP(=O)(O)O)ccc12 [Compound 22, (3-acetyl-1-(2-((2S,4R)-2-((3-chloro-2-fluoro-phenylsulfonamido)meth-yl)-4-fluoropyrrolidin-1-yl)-2-oxoethyl)-1H-indol-6-yloxy)methylphosphonic acid]	> 6.00
CCC(=O)OC(OP(=O)(COc1ccc2c(C(C)=O)cn(CC(=O)N3C[C@H](F)C[C@H]3C(=O)NCc3cccc(Cl)c3F)c2c1)OC(OC(=O)CC)C(C)C)C(C)C (stereo partly drawn) [Compound 23, 1,1′-(((3-acetyl-1-(2-((2S,4R)-2-(3-chloro-2-fluorobenzylcarbamoyl)-4-fluoropyrrolidin-1-yl)-2-oxoethyl)-1H-indol-6-yloxy)methyl)phosph-oryl)bis(oxy)bis(2-methylpropane-1,1-diyl) dipropionate]	> 6.00
CC(=O)c1cn(CC(=O)N2C[C@H](F)C[C@H]2C(=O)NCc2cccc(Cl)c2F)c2cc(OCP(=O)(N[C@@H](C)C(=O)OC(C)C)N[C@@H](C)C(=O)OC(C)C)ccc12 [Compound 24, (2S,2′S)-isopropyl 2,2′-(((3-acetyl-1-(2-((2S,4R)-2-(3-chloro-2-fluorobenzylcarbamoyl)-4-fluoropyrrolidin-1-yl)-2-oxoethyl)-1H-indol-6-yloxy)methyl)phosph-oryl)bis(azanediyl)di-propanoate]	> 6.00
